Test results reported in US20250296922A1, “POLYSUBSTITUTED PYRROLIDINE DERIVATIVE, PREPARATION METHOD THEREFOR AND USE THEREOF” (SHANGHAI WENNAI THERAPEUTICS CO LTD, priority 2023, published 2025).

Target: Nav1.8 sodium channel (Homo sapiens (Human), UniProt Q9Y5Y9)
Assay: NaV1.8 blocking activity, manual patch clamp
Assay type: cell-based
Settings: CHO cell line stably expressing Nav1.8
Experimental: The NaV1.8 blocking activity was determined by using a manual patch clamp technique to detect the effect of the subject on the channel currents of stably overexpressed Nav1.8.
CHO cell line stably expressing the Nav1.8 sodium channel was used for the experiments, gene information: sodium channel, voltage-gated, type 8, alpha (SCN10A), cDNA strictly similar to GenBank accession number: NM 006514.
Cells were cultured in HAM'S/F-12 medium containing 10% foetal bovine serum and 10 μg/mL Blasticidin, 200 μg/mL Hygromycin B, and 100 μg/mL Zeocin at 37° C., 5% CO2. For expansion or maintenance cultures, cells were treated with 0.25%-Trypsin-EDTA, washed and centrifuged, and then inoculated in 6-cm cell culture dishes with 2.5×10^5lls per cell culture dish (final volume: 5 mL).
Prior to the patch clamp detection, cells were separated with 0.25%-Trypsin-EDTA and 6.5×10^3 cells were spread onto coverslips and incubated (final volume: 500 μL) in 24-well plates for 18 hours, then the test was performed.
50 mM CsCl, 10 mM NaCl, 10 mM HEPES, 60 mM CsF, 20 mM EGTA, and pH was adjusted to 7.2 with CsOH. • Instrument information is provided in Table 2 below:
Prior to Nav1.8 channel current testing, a blank control solution (DMSO) was diluted into 10 ml of extracellular fluid as the working solution. Positive controls and subjects were first diluted with different doses of DMSO depending on the final concentration before being diluted as working solution using extracellular fluid. 100 nM TTX was added to each working solution to block the TTX-S current. The working solution was sonicated for 20 min before performing the patch clamp test detection.
Patch clamp manipulation: firstly, the capillary glass tube was drawn into a recording electrode using a microelectrode puller, then the electrode filled with intracellular fluid was loaded into the microelectrode holder, and the microelectrode manipulator was manoeuvred under an inverted microscope to immerse the electrode into the extracellular fluid and record the electrode resistance (Rpip). The electrode was then slowly contacted to the cell surface and negative pressure suction was given to form a GQ2 seal. At this time, fast capacitance compensation was performed and negative pressure was continually applied to suction through the cell membrane to form a whole-cell recording pattern. Finally, slow capacitance compensation was performed and experimental parameters such as series resistance (Rs) were recorded. No leakage compensation was given.
Drug administration was initiated when the Nav1.8 current was stabilized for whole-cell recordings, and the next concentration was detected after each drug concentration had acted for approximately 5 min (or until the current was stable). Cell-lined coverslips were placed in the recording bath under an inverted microscope, and the blank control external solution as well as the working solution of the compound to be tested flowed sequentially from low to high concentrations through the recording bath by using gravitational perfusion and thus acted on the cells, and a peristaltic pump was used to exchange fluids during the recording. The current detected by each cell in the compound-free external fluid served as its own control. Each concentration was repeated independently 2-3 times. All electrophysiological experiments were performed at room temperature.
The voltage stimulation scheme for whole-cell patch-clamp recording of Nav1.8 currents was as follows: when a whole-cell seal was formed, the voltage was clamped at −120 mV. The resting state recording of sodium currents was performed by maintaining the voltage for 5s and then depolarizing it to 0 mV, and then administering a depolarizing pulse (TP1) to 0 m V for 50 ms for detecting the resting state sodium currents. For half-inactivated state recording, the voltage was first stepped at different voltages and maintained for 5s and then a depolarizing pulse was given to 0 mV to detect the Vhalf. […]

Chain of Nav1.8 sodium channel (Q9Y5Y9 whole entry): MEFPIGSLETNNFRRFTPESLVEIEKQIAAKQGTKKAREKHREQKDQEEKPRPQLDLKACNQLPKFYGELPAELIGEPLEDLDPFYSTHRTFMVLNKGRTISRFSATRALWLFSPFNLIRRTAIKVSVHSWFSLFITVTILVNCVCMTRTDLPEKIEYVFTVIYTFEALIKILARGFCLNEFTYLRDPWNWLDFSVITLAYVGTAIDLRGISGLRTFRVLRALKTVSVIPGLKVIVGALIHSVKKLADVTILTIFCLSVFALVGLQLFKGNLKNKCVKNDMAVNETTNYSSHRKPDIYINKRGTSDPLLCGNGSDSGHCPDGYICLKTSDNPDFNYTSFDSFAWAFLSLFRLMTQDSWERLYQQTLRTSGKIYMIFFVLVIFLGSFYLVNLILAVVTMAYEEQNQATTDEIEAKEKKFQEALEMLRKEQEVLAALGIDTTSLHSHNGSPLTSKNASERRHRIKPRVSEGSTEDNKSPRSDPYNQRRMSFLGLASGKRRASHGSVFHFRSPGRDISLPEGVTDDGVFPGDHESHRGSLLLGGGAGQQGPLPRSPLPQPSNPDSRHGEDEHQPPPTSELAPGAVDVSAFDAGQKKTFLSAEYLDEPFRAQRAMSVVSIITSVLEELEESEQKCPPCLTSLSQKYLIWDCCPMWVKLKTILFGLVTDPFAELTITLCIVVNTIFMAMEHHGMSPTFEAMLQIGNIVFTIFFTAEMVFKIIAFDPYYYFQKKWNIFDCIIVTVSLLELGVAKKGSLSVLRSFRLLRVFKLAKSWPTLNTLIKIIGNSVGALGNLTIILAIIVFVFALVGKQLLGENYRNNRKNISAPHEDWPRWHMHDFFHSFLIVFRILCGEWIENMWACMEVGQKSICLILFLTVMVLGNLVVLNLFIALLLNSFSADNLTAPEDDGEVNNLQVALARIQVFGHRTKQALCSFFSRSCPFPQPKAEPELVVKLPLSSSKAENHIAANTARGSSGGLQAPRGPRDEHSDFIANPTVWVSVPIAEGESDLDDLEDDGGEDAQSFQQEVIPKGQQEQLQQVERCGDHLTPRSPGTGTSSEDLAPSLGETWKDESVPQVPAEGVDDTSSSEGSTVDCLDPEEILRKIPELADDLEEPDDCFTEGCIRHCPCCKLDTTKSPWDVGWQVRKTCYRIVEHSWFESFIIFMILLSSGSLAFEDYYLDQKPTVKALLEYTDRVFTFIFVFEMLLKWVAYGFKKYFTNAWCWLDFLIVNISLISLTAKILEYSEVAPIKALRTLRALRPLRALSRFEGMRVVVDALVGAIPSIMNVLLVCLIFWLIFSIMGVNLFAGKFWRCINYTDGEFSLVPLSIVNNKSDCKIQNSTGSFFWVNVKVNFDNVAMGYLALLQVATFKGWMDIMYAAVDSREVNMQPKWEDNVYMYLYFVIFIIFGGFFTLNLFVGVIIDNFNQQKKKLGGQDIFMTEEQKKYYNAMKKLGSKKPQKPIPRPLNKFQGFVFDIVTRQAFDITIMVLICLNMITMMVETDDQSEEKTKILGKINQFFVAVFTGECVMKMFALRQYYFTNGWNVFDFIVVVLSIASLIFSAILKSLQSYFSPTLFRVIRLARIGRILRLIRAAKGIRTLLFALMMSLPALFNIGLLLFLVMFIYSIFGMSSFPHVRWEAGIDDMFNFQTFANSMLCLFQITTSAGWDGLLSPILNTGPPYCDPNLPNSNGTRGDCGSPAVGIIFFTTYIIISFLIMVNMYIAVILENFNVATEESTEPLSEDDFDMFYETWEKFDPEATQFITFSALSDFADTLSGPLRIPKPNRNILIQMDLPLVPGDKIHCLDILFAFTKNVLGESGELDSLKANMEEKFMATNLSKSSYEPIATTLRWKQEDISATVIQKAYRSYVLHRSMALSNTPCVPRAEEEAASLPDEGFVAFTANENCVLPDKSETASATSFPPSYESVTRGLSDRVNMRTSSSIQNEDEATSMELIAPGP

| Blocking rate (%) @3 nM [%] | Blocking rate(%) @10 nM [%] | Molecule |
| --- | --- | --- |
| 35.55 | 79.44 | [2H]C([2H])([2H])Oc1c([C@H]2[C@H](C(=O)Nc3ccnc(C(=N)NOC)c3)N[C@@](C)(C(F)(F)F)[C@H]2C)ccc(F)c1F [Compound 15, (2R,3S,4S,5R)-3-(3,4-difluoro-2-(methoxy-d3)phenyl)-N-(2-(N-methoxycarbamimidoyl)pyridin-4-yl)-4,5-dimethyl-5-(trifluoromethyl) pyrrolidine-2-carboxamide] |
| 91.40 | 99.51 | [2H]C([2H])([2H])Oc1c([C@H]2[C@H](C(=O)Nc3ccc(F)c(C(=N)NO)c3)N[C@@](C)(C(F)(F)F)[C@H]2C)ccc(F)c1F [Compound 14, (2R,3S,4S,5R)-3-(3,4-difluoro-2-(methoxy-d3)phenyl)-N-(4-fluoro-3-(N-hydroxycarbamimidoyl)phenyl)-4,5-dimethyl-5-(trifluoromethyl) pyrrolidine-2-carboxamide] |
| 72.73 | 79.03 | COc1c([C@H]2[C@H](C(=O)Nc3ccc([C@H](O)CO)nc3)N[C@@](C)(C(F)(F)F)[C@H]2C)ccc(F)c1F [Compound 5, (2R,3S,4S,5R)-3-(3,4-difluoro-2-methoxyphenyl)-aza-(6-((S)-1,2-dihydroxyethyl)pyridin-3-yl)-4,5-dimethyl-5-(trifluoromethyl) pyrrolidine-2-carboxamide] |
| 40.29 | 63.01 | [2H]C([2H])([2H])Oc1c([C@H]2[C@H](C(=O)Nc3cc[n+]([O-])c(C(N)=O)c3)N[C@@](C)(C(F)(F)F)[C@H]2C)ccc(F)c1F [Compound 18, 2-carbamoyl-4-((2R,3S,4S,5R)-3-(3,4-difluoro-2-(methoxy-d3)phenyl)-4,5-dimethyl-5-(trifluoromethyl)pyrrolidine-2-carboxamido)pyridine 1-oxide] |
| 77.43 | 88.65 | COc1c([C@H]2[C@H](C(=O)Nc3ccnc(S(C)(=O)=O)c3)N[C@@](C)(C(F)(F)F)[C@H]2C)ccc(F)c1F [Compound 12, (2R,3S,4S,5R)-3-(3,4-difluoro-2-methoxyphenyl)-4,5-dimethyl-N-(2-(methylsulfonyl)pyridin-4-yl)-5-(trifluoromethyl) pyrrolidine-2-carboxamide] |
| 58.06 | 84.91 | COc1c([C@H]2[C@H](C(=O)Nc3ccnc(S(N)(=O)=O)c3)N[C@@](C)(C(F)(F)F)[C@H]2C)ccc(F)c1F [Compound 9, (2R,3S,4S,5R)-3-(3,4-difluoro-2-methoxyphenyl)-4,5-dimethyl-aza-(2-aminosulfonylpyridin-4-yl)-5-(trifluoromethyl) pyrrolidine-2-carboxamide] |
| 20.06 | 45.92 | COc1c([C@H]2[C@H](C(=O)Nc3ccc([C@@H](O)CO)nc3)N[C@@](C)(C(F)(F)F)[C@H]2C)ccc(F)c1F [Compound 6, (2R,3S,4S,5R)-3-(3,4-difluoro-2-methoxyphenyl)-aza-(6-((R)-1,2-dihydroxyethyl)pyridin-3-yl)-4,5-dimethyl-5-(trifluoromethyl) pyrrolidine-2-carboxamide] |
| 26.22 | 55.68 | C[C@H]1[C@@H](c2ccc(F)c(F)c2OC(F)F)[C@H](C(=O)Nc2ccnc(C(N)=O)c2)N[C@@]1(C)C(F)(F)F [Compound 19, 4-((2R,3S,4S,5R)-3-(2-(difluoromethoxy)-3,4-difluorophenyl)-4,5-dimethyl-5-(trifluoromethyl)pyrrolidine-2-carboxamido)pyridinamide] |
| 6.68 | 25.19 | [2H]C([2H])([2H])Oc1c([C@H]2[C@H](C(=O)Nc3ccnc(C(=N)NO)c3)N[C@@](C)(C(F)(F)F)[C@H]2C)ccc(F)c1F [Compound 16, (2R,3S,4S,5R)-3-(3,4-difluoro-2-(methoxy-d3)phenyl)-N-(2-(N-hydroxycarbamimidoyl)pyridin-4-yl)-4,5-dimethyl-5-(trifluoromethyl) pyrrolidine-2-carboxamide] |
| 75.71 | 92.01 | C[C@H]1[C@@H](c2ccc(F)c(F)c2OC(F)F)[C@H](C(=O)Nc2ccnc(C(N)=O)c2)N[C@@]1(C)C(F)(F)F [Compound 13, 4-((2R,3S,4S,5R)-3-(2-(difluoromethoxy)-3,4-difluorophenyl)-4,5-dimethyl-5-(trifluoromethyl)pyrrolidine-2-carboxamido)pyridinamide] |

| Molecule | Blocking rate (%) @3 nM [%] | Blocking rate(%) @10 nM [%] |
| --- | --- | --- |
| COc1c([C@@H]2[C@@H](C(=O)Nc3ccnc(C(N)=O)c3)N[C@](C)(C(F)(F)F)[C@@H]2C)ccc(F)c1F [Compound 2, 4-((2S,3R,4R,5S)-3-(3,4-difluoro-2-methoxyphenyl)-4,5-dimethyl-5-(trifluoromethyl)pyrrolidine-2-carboxamido)pyridine amide] |  | 9.30 |
| COc1c([C@H]2[C@H](C(=O)Nc3ccnc(C(N)=O)c3)N(C)[C@@](C)(C(F)(F)F)[C@H]2C)ccc(F)c1F [Compound 3, 4-((2R,3S,4S,5R)-3-(3,4-difluoro-2-methoxyphenyl)-1,4,5-trimethyl-5-(trifluoromethyl)pyrrolidine-2-carboxamido)pyridine amide] |  | 84.03 |
| COc1c([C@@H]2[C@@H](C(=O)Nc3ccnc(C(N)=O)c3)N(C)[C@](C)(C(F)(F)F)[C@@H]2C)ccc(F)c1F [Compound 4, 4-((2S,3R,4R,5S)-3-(3,4-difluoro-2-methoxyphenyl)-1,4,5-trimethyl-5-(trifluoromethyl)pyrrolidine-2-carboxamido)pyridine amide] |  | 6.05 |
| 4-((2R,3S,4S,5R)-3-(3,4-difluoro-2-(methoxy-d3)phenyl)-4,5-dimethyl-1-(2,2,2-trifluoroacetyl)-5-(trifluoromethyl) pyrrolidine-2-carboxamido)pyridinamide [Compound 17] | 28.89 | 77.24 |
